Read-outs that look alike come from different tables or passages of the source.
Key:
MDA-MB-231 cells = assay: Growth inhibition, CellTiter-Glo, 7-day exposure, MDA-MB-231; assay type: cell-based; settings: BRCA wild type
Protocol: (§1) MDA-MB-231 cells that is not BRCA gene mutant or other homologous recombination deficient were maintained in DMEM supplemented with fetal bovine serum (10% FBS), 100 units/ml penicillin and 0.1 mg/ml streptomycin. BRCA1-deficient cell line MDA-MB-436 was maintained in RPMI-1640 supplemented with 10% FBS, 100 units/ml penicillin and 0.1 mg/ml streptomycin. Both two cell lines were kept at 95% humidity and 5% CO2 in a 37° C. incubator.
(§2) The number of tumor cells seeded per well of a 96-well plate was optimized for each cell line to ensure logarithmic growth over the 7 days treatment period. Cells were left to attach for 16 hours and then treated with specific concentrations of test compounds. Following a 7-day exposure to the compound, the growth-inhibitory activity of compounds was determined using CellTiter-Glo luminescent cell viability assay (Promega). Luminescent signal was measured using PHERAstar FS reader (BMG Labtech). Cell viability was expressed as relative to mock treatment control. EC50 values for growth inhibition were calculated by fitting dose-dependent data to the four-parameter logistic model using XLfit software.

[1] = test system: MDA-MB-436 cells (BRCA1 Deficient); assay: Growth inhibition, CellTiter-Glo, 7-day exposure, MDA-MB-436; assay type: cell-based, human; settings: for EC50: 7-day exposure, BRCA1 Deficient, read-out: EC50 for growth inhibition, MDA-MB-436 (Table 20)
Protocol: as §1, §2

PARP = assay: In vivo pharmacodynamics: PARylation in MDA-MB-436 breast cancer xenografts; design: species or system BALB/c nude mice; settings: 4 hours after single oral dose at 0.34 mg/kg or higher
[2] = test system: intracranial H209 xenografts; assay: Intracranial H209 xenografts, combination with TMZ; assay type: in vivo, Mice; settings: Compound A added to TMZ, compared to TMZ single agent
Brain penetration = settings: in vivo
[3] = Nonclinical toxicity, single and repeat dose studies up to 28 days; assay type: in vivo; settings: rats and dogs
Text: The nonclinical toxicity profile of Compound A was characterized in both rats and dogs in single and repeat dose studies up to 28 days. The adverse effects included decrease in body weights or body weight gain and food consumption; decrease in WBC, NEUT, LYMP, RBC, HGB, HCT and APTT; and increase in PLT. The bone marrow was considered to be the major target organ and the severity of histopathological changes ranged from minimal to marked. […] […]. In summary, the available toxicological data are adequate to support the clinical development of Compound A on late stage and advanced cancer patients in phase I study. The toxicity could be monitored and manageable clinically.

hERG current = hERG current (Homo sapiens, UniProt Q12809); assay: hERG current; assay type: cell-based
hERG current, sequence (Q12809 whole entry): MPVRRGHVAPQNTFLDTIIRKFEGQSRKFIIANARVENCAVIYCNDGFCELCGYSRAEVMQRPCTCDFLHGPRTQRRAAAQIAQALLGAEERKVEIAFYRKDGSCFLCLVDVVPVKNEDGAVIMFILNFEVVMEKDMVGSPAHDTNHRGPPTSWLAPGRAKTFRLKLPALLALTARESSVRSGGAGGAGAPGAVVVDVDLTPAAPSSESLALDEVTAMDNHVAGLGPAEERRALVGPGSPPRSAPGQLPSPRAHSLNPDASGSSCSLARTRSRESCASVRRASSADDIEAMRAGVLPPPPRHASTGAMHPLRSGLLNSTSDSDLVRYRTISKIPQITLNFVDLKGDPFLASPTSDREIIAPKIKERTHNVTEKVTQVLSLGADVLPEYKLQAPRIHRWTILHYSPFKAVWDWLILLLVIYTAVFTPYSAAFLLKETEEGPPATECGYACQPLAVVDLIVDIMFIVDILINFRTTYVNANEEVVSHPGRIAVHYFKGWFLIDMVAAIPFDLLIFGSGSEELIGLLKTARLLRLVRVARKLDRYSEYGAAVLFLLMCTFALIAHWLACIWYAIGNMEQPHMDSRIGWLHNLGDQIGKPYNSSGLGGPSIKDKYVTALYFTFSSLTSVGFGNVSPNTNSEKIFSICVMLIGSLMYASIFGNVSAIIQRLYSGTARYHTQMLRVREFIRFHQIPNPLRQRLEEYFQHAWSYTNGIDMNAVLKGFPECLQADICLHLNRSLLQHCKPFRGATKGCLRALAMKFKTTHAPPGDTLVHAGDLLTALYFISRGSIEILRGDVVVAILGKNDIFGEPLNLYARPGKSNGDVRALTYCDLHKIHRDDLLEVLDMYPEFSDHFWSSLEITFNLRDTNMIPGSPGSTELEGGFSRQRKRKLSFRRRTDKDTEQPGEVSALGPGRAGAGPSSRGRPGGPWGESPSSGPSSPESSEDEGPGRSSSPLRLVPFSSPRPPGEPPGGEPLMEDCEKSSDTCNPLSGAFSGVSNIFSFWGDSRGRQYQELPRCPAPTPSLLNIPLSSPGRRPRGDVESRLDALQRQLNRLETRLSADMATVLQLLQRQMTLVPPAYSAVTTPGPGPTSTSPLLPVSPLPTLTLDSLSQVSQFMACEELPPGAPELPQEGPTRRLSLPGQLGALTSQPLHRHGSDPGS

Pharmacokinetics in rat = assay type: in vivo
Protocol: (§3) The species used for the pharmacokinetic studies were rat and dog. Compound A had good to excellent oral bioavailability (>40%) in both species. Elimination half-lives ranged from 3.1 to 5.0 hours in rats and 1.5 to 2.5 hours in dogs after oral administration. […] Steady state volume of distribution in rats and dogs was 2.4 L/kg and 1.9 L/kg, respectively.

Pharmacokinetics in dog = assay type: in vivo
Protocol: as §3

[4] = Plasma protein binding, human; assay type: in vitro ADME; settings: read-out: Plasma protein binding (PPB) (converted)
[5] = Plasma protein binding, monkey; assay type: in vitro ADME; settings: read-out: Plasma protein binding (PPB) (converted)
[6] = Plasma protein binding, dog; assay type: in vitro ADME; settings: read-out: Plasma protein binding (PPB) (converted)
rat plasma protein = assay: Plasma protein binding, rat; assay type: in vitro ADME
[7] = Plasma protein binding, mouse; assay type: in vitro ADME; settings: read-out: Plasma protein binding (PPB) (converted)
[8] = Tissue distribution after oral administration in rats; assay type: in vivo; settings: 24 hours post-dosing
[9] = Metabolism in human liver microsomes; assay type: in vitro ADME
[10] = Metabolism in dog liver microsomes; assay type: in vitro ADME
[11] = Metabolism in rat liver microsomes; assay type: in vitro ADME
[12] = Metabolism in mouse liver microsomes; assay type: in vitro ADME
[13] = Metabolism in monkey liver microsomes; assay type: in vitro ADME
[14] = Excretion after oral administration in rats; assay type: in vivo
CYP2C9 = CYP2C9 (Homo sapiens, UniProt P11712); assay: CYP2C9 inhibition; assay type: in vitro ADME
CYP2C9, sequence (P11712 whole entry): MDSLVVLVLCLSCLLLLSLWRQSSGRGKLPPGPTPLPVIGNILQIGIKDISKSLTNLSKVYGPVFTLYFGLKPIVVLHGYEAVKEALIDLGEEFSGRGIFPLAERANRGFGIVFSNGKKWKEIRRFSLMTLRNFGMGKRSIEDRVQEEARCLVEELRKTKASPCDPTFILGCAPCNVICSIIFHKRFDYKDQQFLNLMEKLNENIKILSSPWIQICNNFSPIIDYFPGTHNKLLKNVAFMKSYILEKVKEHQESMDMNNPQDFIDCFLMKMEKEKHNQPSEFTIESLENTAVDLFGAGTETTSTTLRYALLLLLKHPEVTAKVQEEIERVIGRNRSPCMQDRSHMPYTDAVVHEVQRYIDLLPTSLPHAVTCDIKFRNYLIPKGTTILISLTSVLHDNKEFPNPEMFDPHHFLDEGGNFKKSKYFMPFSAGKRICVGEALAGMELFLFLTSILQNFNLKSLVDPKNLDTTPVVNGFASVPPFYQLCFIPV

other CYP isozymes = assay: Inhibition of other CYP isozymes; assay type: in vitro ADME; settings: human; read-out: IC50s for other CYP isozymes
human CYP1A2 = assay: CYP1A2 induction; assay type: in vitro ADME
human CYP2B6 = assay: CYP2B6 induction; assay type: in vitro ADME
human CYP3A = assay: CYP3A induction; assay type: in vitro ADME
CYP3A, CYP2C8 = assay: CYP isoforms responsible for metabolism; assay type: in vitro ADME
[15] = test system: BRCA1/2 mutant ovary cancer; assay: Phase I clinical safety study, capsules; assay type: in vivo, human
[16] = test system: BRCA1 mutation breast cancer xenograft; assay: BRCA1 mutation breast cancer xenograft model; assay type: in vivo; settings: at much lower dose than olaparib
PARP2 (aa2-583) = PARP2 (aa2-583) (Homo sapiens, UniProt Q9UGN5); assay: PARP2 PARylation chemiluminescent assay; assay type: biochemical; settings: Crystalline Form C tested
PARP2 (aa2-583), sequence (Q9UGN5 2-583): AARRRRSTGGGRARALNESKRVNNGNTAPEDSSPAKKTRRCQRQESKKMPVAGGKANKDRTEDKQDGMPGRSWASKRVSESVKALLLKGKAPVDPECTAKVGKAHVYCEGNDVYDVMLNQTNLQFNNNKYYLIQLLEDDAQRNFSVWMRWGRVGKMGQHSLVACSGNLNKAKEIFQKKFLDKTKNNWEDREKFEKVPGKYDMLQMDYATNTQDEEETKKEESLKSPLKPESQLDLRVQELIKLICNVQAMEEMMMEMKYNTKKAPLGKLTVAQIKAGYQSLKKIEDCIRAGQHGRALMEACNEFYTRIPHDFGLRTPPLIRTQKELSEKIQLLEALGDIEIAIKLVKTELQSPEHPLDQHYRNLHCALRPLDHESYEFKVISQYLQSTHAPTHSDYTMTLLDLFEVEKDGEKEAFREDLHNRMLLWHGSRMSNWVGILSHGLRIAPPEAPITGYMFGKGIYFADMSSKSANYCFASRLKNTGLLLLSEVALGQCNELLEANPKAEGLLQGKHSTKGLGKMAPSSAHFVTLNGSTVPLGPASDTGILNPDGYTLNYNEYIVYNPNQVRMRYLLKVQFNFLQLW
Protocol: PARP1 and PARP2 enzymes were from the assay kits, while TNKS1 and TNKS2 enzymes were produced in-house. The assays were performed according to the manufacture's instruction. Briefly, H2A and H2B proteins were immobilized on the surface of plates and then incubated with a serial dilution of compounds and the target enzyme for 0.5 hr. Then, biotinylated NAD and DNA (no DNA needed for TNKS1 or TNKS2) were added to the wells to initiate reactions. The biotinylated PARsylation product was measured by chemiluminescence after adding streptavidin-HRP and HRP substrates.

Solubility study = assay type: physicochemical
[17] = Long term stability studies; assay type: physicochemical; settings: for Assay w/w, T12: 12 months; for Assay w/w, T0: start
Hygroscopicity = assay type: physicochemical
[18] = test system: Intracellular PARP activity; assay type: cell-based; settings: HeLa cells, H2O2 200 μM; read-out: IC50 (nM) in PARylation assay
Protocol: Upon incubation with hydrogen peroxide (H2O2), Intracellular PARP activity was induced and endogenous PAR level was elevated. The assay was performed as follows:
Cells were plated into a 96-well plate with clear bottom and black wall at a density of 5000 cells per well (100 μL). […] In the following day, H2O2 solution in PBS (final concentration 200 μM) was added and the plate was kept at 37° C. for 5 minutes. Then the medium was gently removed by plate inversion, and the cells were fixed by ice-cold MeOH at −20° C. for 20 minutes. […] After removal of solution and repeated wash with PBS, the PAR polymer level was estimated by ArrayScan VTI (ThermoFisher). Percent inhibition was determined on the basis of the residual enzyme activity in the presence of increasing PARP inhibitor concentration. IC50 values were calculated by fitting dose-dependent data to the four-parameter logistic model using XLfit software.

[19] = read-out: EC50 for growth inhibition, MDA-MB-231 (Table 20)

C[C@]12CCCN1CC1=NNC(=O)c3cc(F)cc4[nH]c2c1c34 [Compound A, (R)-2-fluoro-10a-methyl-7,8,9,10,10a,11-hexahydro-5,6,7a,11-tetraazacyclohepta[def]cyclopenta[a]fluoren-4(5H)-one]
EC50 (MDA-MB-231 cells; Homo sapiens, MDA-MB-231, 168 h, read-out: EC50 for growth inhibition, MDA-MB-231): ~9 µM
EC50 (MDA-MB-231 cells; Homo sapiens, MDA-MB-231, 168 h, read-out: EC50 for growth inhibition, MDA-MB-231 (Table 20)): ~9 µM
sensitivity of MDA-MB-436 cells ([1]; BRCA1-deficient): profoundly sensitive
EC50 ([1]; Homo sapiens, MDA-MB-436, 168 h): 0.041 ± 0.015 µM
inhibition of PARylation (PARP): Potent inhibition of PARylation
animal survival [2]: significantly prolonged animal survival
brain penetration (Brain penetration): significant brain penetration
character of toxicity ([3]; 28-day recovery phase): dose dependent, correlated with systemic exposure and reversible
major target organ of toxicity ([3]; up to 28 days): bone marrow
IC50 (hERG current): 26 µM
mutagenicity (Ames assay): No mutagenicity
accumulation following multiple oral dosing (Pharmacokinetics in rat): no accumulation
bioavailability (Pharmacokinetics in rat; in vivo, po): > 40%
clearance (Pharmacokinetics in rat; in vivo, rats): 8.67 to 15.2 mL/min/kg
half-life (Pharmacokinetics in rat; in vivo, rats, oral administration, read-out: Elimination half-lives): 3.1 to 5 h
Vd (Pharmacokinetics in rat; in vivo, rats, read-out: Steady state volume of distribution): 2.4 L/kg
accumulation following multiple oral dosing (Pharmacokinetics in dog): no accumulation
clearance (Pharmacokinetics in dog; in vivo, dogs): 18.3 to 18.5 mL/min/kg
half-life (Pharmacokinetics in dog; in vivo, dogs, oral administration, read-out: Elimination half-lives): 1.5 to 2.5 h
Vd (Pharmacokinetics in dog; in vivo, dogs, read-out: Steady state volume of distribution): 1.9 L/kg
bioavailability (Pharmacokinetics in dog; in vivo, po): > 40%
fraction unbound [4]: 0.043
fraction unbound [5]: 0.111
fraction unbound [6]: 0.21
Plasma protein binding (PPB) (rat plasma protein): 84.9%
fraction unbound [7]: 0.15
organ drug concentration as % of the peak concentration [8]: less than 10%
rate of metabolism [9]: slowly
rate of metabolism [10]: slowly
rate of metabolism [11]: slowly
rate of metabolism [12]: slowly
rate of metabolism [13]: quickly
excreted in urine and bile [14]: Less than 1%
IC50 (CYP2C9): 6.48 µM
IC50 (other CYP isozymes): > 10 µM
induction of human CYP1A2 (human CYP1A2): not an inducer
induction of human CYP2B6 (human CYP2B6): not an inducer
induction of human CYP3A (human CYP3A): not an inducer
CYP isoform responsible for metabolism (CYP3A, CYP2C8): CYP3A was the major CYP isoform
clinical response ([15]; BRCA1/2 mutant ovary cancer patients): partial or complete responses
tumor regression [16]: significantly induces tumor regression

O=C(c1cc(Cc2n[nH]c(=O)c3ccccc23)ccc1F)N1CCN(C(=O)C2CC2)CC1 [Olaparib, olaparib, reference compound]
EC50 (MDA-MB-231 cells; [19]): ~5 µM
EC50 [1]: 0.021 ± 0.007 µM

C[C@]12CCCN1CC1=NNC(=O)c3cc(F)cc4[nH]c2c1c34 [Compound A sesqui-hydrate, (R)-2-fluoro-10a-methyl-7,8,9,10,10a,11-hexahydro-5,6,7a,11-tetraazacyclohepta[def]cyclopenta[a]fluoren-4(5H)-one sesqui-hydrate]
IC50 (PARP2 (aa2-583)): 0.00092 µM
clinical safety and tolerability ([15]; 25 subjects, 2.5-120 mg bid, capsules): safe and well tolerated
solubility in simulated gastric fluid (SGF) (Solubility study; SGF, pH=1.2): 4500 µg/mL
solubility (Solubility study; simulated gastric fluid (SGF), pH 1.2, simulated gastric fluid, SGF, pH=1.2, read-out: solubility in simulated gastric fluid (SGF)): ~4500 µg/mL
solubility in water (Solubility study; water): 40 µg/mL
solubility (Solubility study; water, read-out: solubility in water): ~40 µg/mL
crystal form and optical purity on storage ([17]; 25° C./60% RH and 40° C./75% RH, up to 12 months): no crystal form and optical purity changes were observed
Assay w/w, T12 ([17]; 25° C./60% RH): 99.0%
Assay w/w, T0 ([17]; 25° C./60% RH): 99.1%
Assay w/w, T12 ([17]; 40° C./75% RH): 98.9%
Assay w/w, T0 ([17]; 40° C./75% RH): 99.0%
hygroscopicity (Hygroscopicity): slightly hygroscopic

C[C@]1(c2nc3c(C(N)=O)cccc3[nH]2)CCCN1 [Veliparib, veliparib, reference compound]
IC50 [18]: 2.66 nM
EC50 (MDA-MB-231 cells; [19]): > 10 µM
EC50 [1]: 0.82 ± 0.3 µM
